In test [1] the test system is E.coli ATCC 25922. Put plainly: MIC, standard microdilution assay. The test is classed as cell-based, Escherichia coli. Particulars: Reference strain, wild type; CLSI microdilution, cation-supplemented Mueller-Hinton broth, 5x10^4 CFU/well, 18–20 h at 37°C, triplicate. On the procedure:
(§1) MICs were determined using a standard microdilution assay as recommended by the Clinical and Laboratory Standards Institute. Assays were performed in triplicate using cation-supplemented Mueller-Hinton (MH) broth (Becton Dickinson, Franklin Lakes, NJ, USA) and a bacterial inoculum of 5x10^4 CFU/well, in a final volume of 100 µl. The tested concentrations ranged from 0.1 µM to 24 µM for both peptides. Results were recorded after 18–20 h of incubation at 37°C.
For orientation: In broth dilution the organism is exposed to a series of concentrations in liquid medium.

For test [2], the system named is P. aeruginosa ATCC 27853 biofilm. The test is classed as cell-based, Pseudomonas aeruginosa. Particulars: ATCC 27853, 2 h. On the procedure:
Biofilm formation was performed by adapting the procedure described in [39] using the Calgary Biofilm Device (Innovotech, Innovotech Inc. Edmonton, Canada). Briefly, 96-well plates containing the bacterial inoculum were sealed with lids bearing 96 pegs on which the biofilm could build up. The plates were placed in an orbital incubator at 35°C (for P. aeruginosa and E. coli) or 37°C (for S. aureus) for 20 h under agitation at 125 rpm. Once biofilms formed, the lids were removed from the plates and the pegs were rinsed twice with phosphate buffered saline (PBS) to remove planktonic cells. The peg-lid was then transferred to a 96-well challenge microtiter plate, each well containing 200 µl of a twofold serial dilution of each peptide in LB medium. The challenge plate was incubated at 37°C for 2 hours. Peptide activity on pre-formed biofilm was evaluated by two independent methods: (i) visual observation of bacterial growth and (ii) counting of living bacterial cells after peptide treatment. In the first case, the peg-lid was removed from the challenge plate, rinsed with PBS and used to cover a 96-well recovery microtiter plate, each well containing 200 µl LB medium. […] Colony forming units (CFU) were expressed as percentage with respect to control (peptide-untreated biofilms). […]

Test [3] deals with S.epidermidis 6154. It counts as cell-based, Staphylococcus epidermidis. On the procedure: as §1
Test [4] has as its system P. aeruginosa ATCC 27853 biofilm. The test is classed as cell-based, Pseudomonas aeruginosa. Particulars: ATCC 27853, 20 h. The procedure:
Biofilm formation was performed by adapting the procedure described in [39] using the Calgary Biofilm Device (Innovotech, Innovotech Inc. Edmonton, Canada). Briefly, 96-well plates containing the bacterial inoculum were sealed with lids bearing 96 pegs on which the biofilm could build up. The plates were placed in an orbital incubator at 35°C (for P. aeruginosa and E. coli) or 37°C (for S. aureus) for 20 h under agitation at 125 rpm. Once biofilms formed, the lids were removed from the plates and the pegs were rinsed twice with phosphate buffered saline (PBS) to remove planktonic cells. The peg-lid was then transferred to a 96-well challenge microtiter plate, each well containing 200 µl of a twofold serial dilution of each peptide in LB medium. The challenge plate was incubated at 37°C for 2 hours. Peptide activity on pre-formed biofilm was evaluated by two independent methods: (i) visual observation of bacterial growth and (ii) counting of living bacterial cells after peptide treatment. In the first case, the peg-lid was removed from the challenge plate, rinsed with PBS and used to cover a 96-well recovery microtiter plate, each well containing 200 µl LB medium. The recovery plate was sealed, incubated at 37°C for 4 hours and then observed for any visible growth of bacteria detached from the peptide-treated biofilm. […]

The subject of test [5] is P.aeruginosa AV 65. It counts as cell-based, Pseudomonas aeruginosa. The procedure: as §1
Test [6] in a line: Binding of LPS and LTA to immobilized peptides, surface plasmon resonance. Particulars: SPR, biotinylated peptides immobilized on SA flow cells; LPS/LTA 10 µg/ml in HBS-EP+ pH 7.4, injected 180 sec at 30 µl/min. The procedure:
Biotinylated peptides were immobilized on SA coated flow cells. M33-L and M33-D peptides, diluted to 10 µg/ml in HBS-EP+ buffer (10 mM Hepes, 150 mM NaCl, 3.4 mM EDTA, 0.05% polysorbate 20 pH 7.4), were injected for 90 sec at a flow rate of 10 µl/min, obtaining 550 RU and 580 RU for M33-L and M33-D respectively.
LTA and LPS molecules from different species (LPS from E. coli, K. pneumonia, P. aeruginosa and LTA from S. aureus and S. faecalis, were obtained from Sigma-Aldrich: L-3012, L-4268, L9143, L2515 and L4015, respectively) were diluted in HBS-EP+ buffer at the concentration of 10 µg/ml and injected for 180 sec with a flow rate of 30 µl/min over immobilized peptides. An empty flow cell was used as reference.
Background: Surface plasmon resonance follows binding to a sensor surface in real time, without labels.

For test [7], the system named is S.epidermidis ATCC 14990. Kind of test: MIC, standard microdilution assay. The test is classed as cell-based, Staphylococcus epidermidis. Particulars: Reference strain, wild type; CLSI microdilution, cation-supplemented Mueller-Hinton broth, 5x10^4 CFU/well, 18–20 h at 37°C, triplicate. On the procedure:
as §1

Test [8] concerns S.aureus 3851. It counts as cell-based, Staphylococcus aureus. The procedure:
as §1

The test system of test [9] is S.aureus USA 300. The test is classed as cell-based, Staphylococcus aureus. The procedure:
as §1

≈ marks a conversion by molar mass, not a printed value. Bridge positions count the residues as written; N and C are the ends. Square brackets hold non-standard residues; d marks the D form. Peptide text beside a SMILES is read from it. I, II: the chains in the order shown. βAla = NCCC(=O)O

Usually MIC stands for the smallest concentration in the dilution series that meets the test's criterion for growth inhibition. A high value points to a less susceptible organism. Turning to `CC[C@@H](C)[C@@H](NC(=O)[C@@H](CCCCN)NC(=O)[C@H](N)CCCCN)C(=O)N[C@H](CCCNC(=N)N)C(=O)N[C@@H](C(=O)N[C@H](CCCNC(=N)N)C(=O)N[C@H](CC(C)C)C(=O)N[C@H](CO)C(=O)N[C@H](C)C(=O)NCCCC[C@H](NC(=O)[C@@H](C)NC(=O)[C@@H](CO)NC(=O)[C@@H](CC(C)C)NC(=O)[C@@H](CCCNC(=N)N)NC(=O)[C@H](NC(=O)[C@@H](CCCNC(=N)N)NC(=O)[C@H](NC(=O)[C@@H](CCCCN)NC(=O)[C@H](N)CCCCN)[C@H](C)CC)C(C)C)C(=O)NCCCC[C@H](NC(=O)[C@H](CCCCNC(=O)[C@@H](C)NC(=O)[C@@H](CO)NC(=O)[C@@H](CC(C)C)NC(=O)[C@@H](CCCNC(=N)N)NC(=O)[C@H](NC(=O)[C@@H](CCCNC(=N)N)NC(=O)[C@H](NC(=O)[C@@H](CCCCN)NC(=O)[C@H](N)CCCCN)[C@H](C)CC)C(C)C)NC(=O)[C@@H](C)NC(=O)[C@@H](CO)NC(=O)[C@@H](CC(C)C)NC(=O)[C@@H](CCCNC(=N)N)NC(=O)[C@H](NC(=O)[C@@H](CCCNC(=N)N)NC(=O)[C@H](NC(=O)[C@@H](CCCCN)NC(=O)[C@H](N)CCCCN)[C@H](C)CC)C(C)C)C(=O)NCCC(=O)O)C(C)C` [M33-D] (I: H-[dK][dK][dI][dR][dV][dR][dL][dS][dA]KK[βAla]-OH / II: H-[dK][dK][dI][dR][dV][dR][dL][dS][dA]K / III: H-[dK][dK][dI][dR][dV][dR][dL][dS][dA] / IV: H-[dK][dK][dI][dR][dV][dR][dL][dS][dA]; amide I:10-IV:C, I:11-II:C, II:10-III:C; N-terminus assumed), the minimal inhibitory concentration (MIC) turned out to be 3 µM (≈ 14 µg/mL) in test [1]; 0.7 µM (≈ 3.28 µg/mL) in test [3]; 3 µM (≈ 14 µg/mL) in test [5]; 0.4 µM (≈ 1.87 µg/mL) in [7]; 0.7 µM (≈ 3.28 µg/mL) in [8]; 1.5 µM (≈ 7.02 µg/mL) in test [9]. The “Minimum bactericidal concentration on biofilm (MBCb)” value in test [2] worked out at 6 µM (≈ 28.1 µg/mL). In test [4], the “Minimum biofilm eradication concentration (MBEC)” value amounted to 3 µM. For the same molecule, in [6], the “binding and kinetic rates of LPS and LTA, M33-L compared with M33-D (in words)” value is reported as “No significant difference in binding or kinetic rates”.
Turning to `CC[C@H](C)[C@H](NC(=O)[C@H](CCCCN)NC(=O)[C@@H](N)CCCCN)C(=O)N[C@@H](CCCNC(=N)N)C(=O)N[C@H](C(=O)N[C@@H](CCCNC(=N)N)C(=O)N[C@@H](CC(C)C)C(=O)N[C@@H](CO)C(=O)N[C@@H](C)C(=O)NCCCC[C@H](NC(=O)[C@H](C)NC(=O)[C@H](CO)NC(=O)[C@H](CC(C)C)NC(=O)[C@H](CCCNC(=N)N)NC(=O)[C@@H](NC(=O)[C@H](CCCNC(=N)N)NC(=O)[C@@H](NC(=O)[C@H](CCCCN)NC(=O)[C@@H](N)CCCCN)[C@@H](C)CC)C(C)C)C(=O)NCCCC[C@H](NC(=O)[C@H](CCCCNC(=O)[C@H](C)NC(=O)[C@H](CO)NC(=O)[C@H](CC(C)C)NC(=O)[C@H](CCCNC(=N)N)NC(=O)[C@@H](NC(=O)[C@H](CCCNC(=N)N)NC(=O)[C@@H](NC(=O)[C@H](CCCCN)NC(=O)[C@@H](N)CCCCN)[C@@H](C)CC)C(C)C)NC(=O)[C@H](C)NC(=O)[C@H](CO)NC(=O)[C@H](CC(C)C)NC(=O)[C@H](CCCNC(=N)N)NC(=O)[C@@H](NC(=O)[C@H](CCCNC(=N)N)NC(=O)[C@@H](NC(=O)[C@H](CCCCN)NC(=O)[C@@H](N)CCCCN)[C@@H](C)CC)C(C)C)C(=O)NCCC(=O)O)C(C)C` [M33-L] (I: H-KKIRVRLSAKK[βAla]-OH / II: H-KKIRVRLSAK / III: H-KKIRVRLSA / IV: H-KKIRVRLSA; amide I:10-IV:C, I:11-II:C, II:10-III:C; N-terminus assumed), the MIC is given as 3 µM (≈ 14 µg/mL) in [1]; 3 µM (≈ 14 µg/mL) in test [3]; 3 µM (≈ 14 µg/mL) in [5]; 1.5 µM (≈ 7.02 µg/mL) in test [7]; 12 µM (≈ 56.2 µg/mL) in test [8]; 6 µM (≈ 28.1 µg/mL) in [9]. In addition, in test [2], the “Minimum bactericidal concentration on biofilm (MBCb)” value was 6 µM (≈ 28.1 µg/mL). Moreover, in test [4], the “Minimum biofilm eradication concentration (MBEC)” value amounted to 1.5 µM. Also, in test [6], the “binding and kinetic rates of LPS and LTA, M33-L compared with M33-D (in words)” value is listed as “No significant difference in binding or kinetic rates”.

Source of the values: publication PMC3462775 (PLoS ONE, 2012).
